Measurements reported in patent US20260027121A1, “LIGAND ACTING ON ADENOSINE RECEPTORS AND COMPOSITION COMPRISING SAME FOR PREVENTION, ALLEVIATION, OR TREATMENT OF OBESITYS” (FUTURE MEDICINE CO., LTD., priority 2022, published 2026).

Legend:
[1] = biological target: T1, A3AR (Homo sapiens, UniProt P0DMS8); assay: cAMP assay at A3AR using full agonist Cl-IB-MECA; type: cell-based; details: FIG. 1C
T1 sequence (P0DMS8 1-318): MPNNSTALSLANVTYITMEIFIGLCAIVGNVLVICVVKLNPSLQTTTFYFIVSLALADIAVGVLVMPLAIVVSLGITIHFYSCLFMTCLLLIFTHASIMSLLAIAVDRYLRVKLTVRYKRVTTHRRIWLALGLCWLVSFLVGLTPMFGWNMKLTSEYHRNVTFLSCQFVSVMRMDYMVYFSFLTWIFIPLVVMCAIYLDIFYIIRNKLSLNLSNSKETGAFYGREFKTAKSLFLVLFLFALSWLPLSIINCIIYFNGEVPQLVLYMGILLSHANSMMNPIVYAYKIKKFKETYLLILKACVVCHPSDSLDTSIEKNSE

[2] = tested on: brown adipocytes; assay: Immunoblot of PKA downstream proteins (P-HSL, P-CREB) in brown adipocytes; type: cell-based, mouse
Protocol: Adipocyte precursor cells capable of differentiating into brown adipocytes were isolated from mouse brown adipose tissue. Cells were cultured in Dulbecco's modified Eagle's medium (Welgene, LM001-07) containing 10% fetal bovine serum (FBS, Gibco, 16000044) and 1% Penicillin Streptomycin (Welgene, LS202-02) at 37° C. in a humidified atmosphere with 5% CO2. When the cells reached about 100% confluency, the cells were exposed to a differentiation medium supplemented with 2.5 mM isobutyl methylxanthine (IBMX, Cayman, I5879), 0.125 mM indomethacin (Cayman, 70270), 1 μM dexamethasone (Cayman), 1 μg/mL insulin (Sigma, I9278), and 1 nM triiodothyronine (T3, Cayman, 6028) for 3 days for adipogenesis. Then, the cells were maintained in a growth medium containing 1 μg/mL insulin and 1 nM triiodothyronine (T3) for 3 days.
In the case of Western blots, the primary antibodies used for Western blots are summarized in [Table 2] above. An anti-rabbit horseradish peroxidase antibody (1:3000, Thermo Fisher, 31460) and an anti-mouse horseradish peroxidase antibody (1:3000, Jackson, 115-035-174) were used as secondary antibodies. All antibodies were diluted in a blocking buffer (5% skimmed milk or 5% bovine serum albumin in TBST). Western blot images were acquired using a Fusion Solo chemiluminescence imaging system (Vilber Lourmat) and analyzed with Evolution Capt software (version 17.03). NIH ImageJ software was used for quantification.

[3] = tested on: BAT, iWAT, and gWAT; assay: TTC staining of adipose tissue (ex vivo electron transport activity); type: in vivo, mouse; details: mice, 1 mg·kg-1day-1 intraperitoneally, 10 days
Protocol: 6-week-old C57BL/6 male mice and CIDEA reporter mice were used according to the approved protocols by Institutional Animal Care and Use Committees of Seoul National University (SNU-201107-1, SNU-201221-3) for in vivo experiments. The mice were housed under a 12 h-light/12 h-dark cycle condition with free access to a normal chow diet (NCD, Purina Lab, 38057, protein: 24.52% calories, carbohydrate: 63.07% calories, and fat: 12.41% calories) and water at 22±1° C. […] Ex vivo electron transport activity associated with mitochondrial oxidative phosphorylation was evaluated by monitoring the reduction of 0.1% triphenyl tetrazolium chloride (TTC, Sigma, T8877).

[4] = tested on: C57BL/6 male mice; assay: Indirect calorimetry (PhenoMaster); type: in vivo, mouse; details: 1 mg·kg-1day-1 intraperitoneally, 10 days
Protocol: 6-week-old C57BL/6 male mice and CIDEA reporter mice were used according to the approved protocols by Institutional Animal Care and Use Committees of Seoul National University (SNU-201107-1, SNU-201221-3) for in vivo experiments. The mice were housed under a 12 h-light/12 h-dark cycle condition with free access to a normal chow diet (NCD, Purina Lab, 38057, protein: 24.52% calories, carbohydrate: 63.07% calories, and fat: 12.41% calories) and water at 22±1° C. The mice were treated intraperitoneally with LJ-4378 (1 mg·kg-1day-1) dissolved in 0.2% DMSO (diluted in PBS) for 10 days.
(§1) Indirect calorimetry was performed using a PhenoMaster (TSE Systems) to measure expenditure (EE), VO2, VCO2, activity, and food intake. Body components were measured by nuclear magnetic resonance scanning Echo MRI-700 (Echo Medical Systems).

[5] = tested on: HFD-fed mice; assay: Diet-induced obesity model (body weight, body composition, tissue weight, H&E); type: in vivo, mouse; details: 1 mg kg-1 once daily, 10 days
Protocol: For a diet-induced obesity model, mice were fed a high-fat diet (HFD)(Research Diets, D12492, protein: 20% kcal, carbohydrate: 20% kcal, and fat: 60% kcal) for 8 weeks. Then, LJ-4378 (1 mg kg-1) was injected into the mice once daily for 10 days.
as §1
Mice fed a HFD were used as a diet-induced obesity model. Body weight changes were monitored during treatment, and fat and body components of the mice were measured after treatment.
For histological analysis, adipose tissue was fixed in 10% formalin and then embedded in a paraffin block. Paraffin sections were stained with hematoxylin/eosin (H&E).

What does the source list for CCCCC#Cc1nc(N)c2ncn([C@@H]3SC[C@@H](O)[C@H]3O)c2n1 [LJ-4378, 2-(6-amino-2-(hex-1-yn-1-yl)-9H-purin-9-yl)tetrahydrothiophene-3,4-diol]?
KB value at A3AR [1]: nM level; P-CREB, fold increase ([2]; 0.1 μM, 24 hours, FIG. 3D): 2.32±0.05 fold; P-HSL, fold increase ([2]; 0.1 μM, 24 hours, FIG. 3D): 2.10±0.12 fold; P-HSL (serine 660) expression level, fold increase ([2]; 10^−5, 4 hours): 6.87±0.69 fold; P-HSL (serine 660) expression level, fold increase ([2]; 10^−7, 4 hours): 6.64±0.34 fold; P-HSL (serine 660) expression level, fold increase ([2]; 10^−9 M, 4 hours): 3.03±0.21 fold; P-HSL (serine 660) expression level, fold increase ([2]; 10^−11 M, 4 hours): 1.55±0.11 fold; mitochondrial activity (TTC staining), fold increase in BAT [3]: 2.86±0.24 fold; mitochondrial activity (TTC staining), fold increase in gWAT [3]: 1.72±0.16 fold; mitochondrial activity (TTC staining), fold increase in iWAT [3]: 2.07±0.17 fold; increase of energy expenditure [4]: 17.0%; increase of oxygen consumption [4]: 17.8%; reduction in body weight [5]: 8.24%; reduction in fat mass [5]: 24.18%; reduction in weight of gWAT [5]: 18.6%; reduction in weight of iWAT [5]: 30.1%
